# From ChEMBL document CHEMBL1201862, “PubChem BioAssay data set” (2004)
#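 The compound was tested at five concentrations on cells cultured in 96-well plates, with a 48-hour exposure period. GI50: concentration for 50% inhibition of growth.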 Activity calls are given as the source filed them. Cut-off read from the data, not from the text of the source: active = GI50 up to about 1.1 µM and inactive = higher.
# Columns and labels:
# Assay in all cases: NCI-60 cell line screen, 48 h
# UACC-257 = test system: UACC-257
# SF-268 = test system: SF-268
# SF-295 = test system: SF-295
# ACHN = test system: ACHN
# HOP-62 = test system: HOP-62
# SK-MEL-28 = test system: SK-MEL-28
# NCI-H226 = test system: NCI-H226
# OVCAR-4 = test system: OVCAR-4
# A498 = test system: A498
# RXF 393 = test system: RXF 393
# CCRF-CEM = test system: CCRF-CEM
# SN12C = test system: SN12C
# HCT-116 = test system: HCT-116
# HL-60 = test system: HL-60
# UO-31 = test system: UO-31
# MOLT-4 = test system: MOLT-4
# TK-10 = test system: TK-10
# 786-0 = test system: 786-0
# HCT-15 = test system: HCT-15
# DMS-114 = test system: DMS-114
SMILES,GI50 (UACC-257),GI50 (SF-268),GI50 (SF-295),GI50 (ACHN),GI50 (HOP-62),GI50 (SK-MEL-28),GI50 (NCI-H226),GI50 (OVCAR-4),GI50 (A498),GI50 (RXF 393),GI50 (CCRF-CEM),GI50 (SN12C),GI50 (HCT-116),GI50 (HL-60),GI50 (UO-31),GI50 (MOLT-4),GI50 (TK-10),GI50 (786-0),GI50 (HCT-15),GI50 (DMS-114)
O=C(O)CCCCn1ccc(=O)[nH]c1=O,> 100 µM (inactive),> 100 µM (inactive),> 100 µM (inactive),> 100 µM (inactive),> 100 µM (inactive),> 100 µM (inactive),> 100 µM (inactive),> 100 µM (inactive),> 100 µM (inactive),> 100 µM (inactive),> 100 µM (inactive),> 100 µM (inactive),> 100 µM (inactive),> 100 µM (inactive),> 100 µM (inactive),> 100 µM (inactive),> 100 µM (inactive),> 100 µM (inactive),> 100 µM,
CCN(CC)CCNC(=O)c1nn(C)c(=S)[nH]c1=S,> 100 µM (inactive),,> 100 µM (inactive),> 100 µM (inactive),> 100 µM (inactive),> 100 µM (inactive),> 100 µM (inactive),> 100 µM (inactive),,> 100 µM (inactive),> 100 µM (inactive),> 100 µM (inactive),> 100 µM (inactive),> 100 µM (inactive),> 100 µM (inactive),> 100 µM (inactive),> 100 µM (inactive),> 100 µM (inactive),> 100 µM,> 100 µM (inactive)
CC(C)(C)CC(C)(C)c1cc2c(O)c(c1)Cc1cc(C(C)(C)CC(C)(C)C)cc(c1O)Cc1cc(C(C)(C)CC(C)(C)C)cc(c1O)Cc1cc(C(C)(C)CC(C)(C)C)cc(c1O)Cc1cc(C(C)(C)CC(C)(C)C)cc(c1O)Cc1cc(C(C)(C)CC(C)(C)C)cc(c1O)C2,> 100 µM (inactive),> 100 µM (inactive),> 100 µM (inactive),> 100 µM (inactive),> 100 µM (inactive),> 100 µM (inactive),,> 100 µM (inactive),,> 100 µM (inactive),> 100 µM (inactive),> 100 µM (inactive),> 100 µM (inactive),> 100 µM (inactive),> 100 µM (inactive),> 100 µM (inactive),> 100 µM (inactive),> 100 µM (inactive),> 100 µM,> 100 µM (inactive)
C1=C2C3=[N+](CCCCC3)CC2Cc2ccsc21 (stereo not given),23.3 µM (inactive),76.2 µM (inactive),44.3 µM (inactive),> 100 µM (inactive),> 100 µM (inactive),> 100 µM (inactive),> 100 µM (inactive),43.4 µM (inactive),39.8 µM (inactive),> 100 µM (inactive),> 100 µM (inactive),67.9 µM (inactive),> 100 µM (inactive),66.1 µM (inactive),> 100 µM (inactive),> 100 µM (inactive),59.8 µM (inactive),> 100 µM (inactive),> 100 µM,
On1c(-c2ccccc2)c(-c2c(-c3ccccc3)n(O)c3ccccc23)c2ccccc21,26.5 µM (inactive),55 µM (inactive),22.1 µM (inactive),29.9 µM (inactive),,61.9 µM (inactive),17.7 µM (inactive),52.1 µM (inactive),,20.9 µM (inactive),34.3 µM (inactive),46.3 µM (inactive),48.5 µM (inactive),32.7 µM (inactive),15.5 µM (inactive),37.7 µM (inactive),38 µM (inactive),14.9 µM (inactive),41 µM,24.7 µM (inactive)
CCOC(=O)c1ccc(N2C(=O)/C(=C\OC)c3ccccc3C2=O)cc1,38.5 µM (inactive),27.7 µM (inactive),33.4 µM (inactive),42.4 µM (inactive),,24.7 µM (inactive),54 µM (inactive),43.6 µM (inactive),,11.2 µM (inactive),,24.5 µM (inactive),34.6 µM (inactive),,15.5 µM (inactive),25.5 µM (inactive),15.1 µM (inactive),27.2 µM (inactive),36 µM,31.5 µM (inactive)
CCOC(=O)C1=C(c2ccccc2)N(C(C)=O)Cc2ccccc21,16.9 µM (inactive),19 µM (inactive),13.9 µM (inactive),16.1 µM (inactive),19.6 µM (inactive),16.8 µM (inactive),14.9 µM (inactive),16.7 µM (inactive),,19.4 µM (inactive),16.4 µM (inactive),21.9 µM (inactive),14.5 µM (inactive),11 µM (inactive),18.1 µM (inactive),12 µM (inactive),45.3 µM (inactive),28.1 µM (inactive),21.4 µM,10.4 µM (inactive)
O[C@]12c3ccccc3C1CCCCC2N1CCOCC1 (stereo not given in full),> 100 µM (inactive),> 100 µM (inactive),> 100 µM (inactive),> 100 µM (inactive),> 100 µM (inactive),> 100 µM (inactive),> 100 µM (inactive),> 100 µM (inactive),,> 100 µM (inactive),> 100 µM (inactive),> 100 µM (inactive),> 100 µM (inactive),> 100 µM (inactive),> 100 µM (inactive),> 10 µM (inactive),> 100 µM (inactive),> 100 µM (inactive),> 100 µM,> 100 µM (inactive)
N#Cc1c(-c2nc3ccccc3s2)c(=O)oc2cc(O)ccc12,24.3 µM (inactive),48.6 µM (inactive),36.4 µM (inactive),25 µM (inactive),16.7 µM (inactive),41.1 µM (inactive),41 µM (inactive),23.1 µM (inactive),23 µM (inactive),43.6 µM (inactive),25.4 µM (inactive),42.3 µM (inactive),31.5 µM (inactive),23.5 µM (inactive),22 µM (inactive),28 µM (inactive),> 100 µM (inactive),26.4 µM (inactive),27.1 µM,
CCCCCC/C=C/CCCCCCCc1cccc(O)c1C(=O)O,49.4 µM (inactive),26.9 µM (inactive),> 100 µM (inactive),85.5 µM (inactive),33.6 µM (inactive),83 µM (inactive),,> 100 µM (inactive),,,39.5 µM (inactive),,> 100 µM (inactive),> 100 µM (inactive),86.9 µM (inactive),48.5 µM (inactive),70.3 µM (inactive),> 100 µM (inactive),38.4 µM,> 100 µM (inactive)
C[C@]12CC[C@H]3[C@@H](CC[C@]4(O)C[C@@H](O)CC[C@]34CO)[C@@]1(O)CC[C@@H]2C1=CC(=O)OC1 [STROPHANTHIDOL],2.99 µM (inactive),0.982 µM (active),1.21 µM (inactive),0.467 µM (active),1.36 µM (inactive),4.78 µM (inactive),4.03 µM (inactive),1.12 µM (inactive),1.61 µM (inactive),0.223 µM (active),0.522 µM (active),3.47 µM (inactive),0.553 µM (active),1.64 µM (inactive),1.9 µM (inactive),0.225 µM (active),1.52 µM (inactive),1.42 µM (inactive),2 µM,
